In patent publication US10842807B2, “Methods of treating neurodegenerative disorders comprising DNA methyltransferase inhibitors” (Washington University, priority 2016, dated 2020):

Legend:
Format in all cases: cell-based, mouse
[1] = tested on: Htt-72Q-expressing primary cortical neurons; experiment: Epigenetic drug library screen, resazurin (Alamar Blue) assay; conditions: 0.02, 0.2, 2 μM added at DIV 6, resazurin at DIV 14; hits validated by MTS
Description: As epigenetic gene regulation is a cell-type specific mechanism, we used a physiologically relevant, post-mitotic cortical neuron culture system for this screen. In this system, lentivirus-mediated expression of the exon 1-encoded N-terminal fragment of mutant Htt (Htt-72Q with a 72 glutamine repeat), but not wild-type (WT) Htt (Htt-25Q), induces neurotoxicity^38. […] In the drug screen, the viability of Htt-expressing cortical neurons was determined by the resazurin (Alamar Blue) assay, a quantitative measurement of mitochondrial metabolic activity, which correlates with cell viability.
Epigenetic drug screen was performed using a primary cortical neuron model of HD with a drug library composed of 84 compounds (Table 1), among which 80 drugs are purchased from Cayman Chemical (Epigenetic Screening Library Item No 11076) and four drugs, SGC0946, EPZ5676, EPZ6438, and GSK126, were obtained from Xcessbio Biosciences Inc. Mouse primary cortical neurons were plated on 96-well flat clear bottom black plates (Corning #3904). WT or mutant Htt exon1 fragment (Htt-25Q or Htt-72Q)-expressing lentiviruses are infected at DIV 5 as described above. The 84 compounds were added to the media at DIV 6 one day after Htt lentiviral infection with three different doses (0.02, 0.2, 2 μM) for each compound at triplicates. DMSO was used as control. Media containing compounds or DMSO were changed every three days to maintain the compounds' activity. At DIV 14, the viability of neurons was determined by resazurin (Alamar blue) assay, a quantitative measurement of mitochondrial metabolic activity. The screen was fully automated and performed in the High-Throughput Screening Center in Washington University School of Medicine. Any possible plate effects were determined using control plates treated with DMSO and used for normalization. Screen hits were validated by MTS assay.

[2] = tested on: Bdnf exon IV, exon VI, and IX transcripts in primary cortical neurons from BACHD mice; experiment: qRT-PCR of Bdnf transcripts in BACHD primary cortical neurons; conditions: 0.2 μM for 3.5 days, vs. vehicle
Description: RNA was harvested 5 days later and subjected to qRT-PCR for total Bdnf (coding exon IX) using β-actin and 18S rRNA as reference genes. […] FIG. 3C depicts the schematic of the mouse Bdnf locus and the relative RNA levels of the Bdnf exons. White boxes, non-coding exons; gray box, coding exon. qRT-PCR was performed as in using exon-specific Bdnf primers. […] (FIG. 3G, FIG. 3H) Cortical neurons were co-transduced with lenti viruses expressing Htt and indicated shRNA and processed as in (FIG. 3C). […] (FIG. 3I) Primary cortical neurons from BACHD mice were treated with decitabine (0.2 μM) or vehicle for 3.5 days. qRT-PCR was performed using β-actin as a reference gene. […] Data are presented as mean+SEM.
(§1) Mouse primary cortical and striatal neurons from embryonic day (E) 15.5 Swiss Webster mouse fetuses (Taconic) were first plated in the minimal essential medium (MEM) containing 10% FBS, 0.45% glucose, 1 mM sodium pyruvate, 2 mM glutamine, 20 U/ml penicillin and 20 μg/ml streptomycin, for 3 h and then maintained in serum-free Neurobasal medium (Life Technologies) containing NeuroCult™ SM1 neuronal supplement ([…] Technologies), 0.5 mM glutamine and 25 μM glutamate for the first 3 d in a humidified incubator (37° C. in 5% CO2). Half of the medium was replaced with Neurobasal medium with SM1 and 0.5 mM glutamine every 3 days.

[3] = tested on: downregulated genes in mutant Htt-expressing striatal neurons; experiment: qRT-PCR of striatal genes in Htt-72Q primary striatal neurons; conditions: Htt-72Q striatal neurons
Description: as §1

Nc1ncn([C@H]2C[C@H](O)[C@@H](CO)O2)c(=O)n1 [decitabine, 5-aza-2′-deoxycytidine]
outcome in epigenetic drug screen (84 compounds) [1]: the most effective drug
expression of Bdnf exon IV, exon VI, and IX transcripts [2]: increased expression of Bdnf exon IV, exon VI, and IX transcripts
mRNA levels of Kdm8 (specificity control) [3]: unchanged
expression of downregulated genes (Drd2, Ppp1r1b, Penk, Pcp4, Rasd2) ([3]; RNA 5 days after infection, vs. Htt-72Q plus vehicle): restored the expression of downregulated genes
